Values after ≈ are worked out from the molar mass of the structure shown.
Experiments:
Solubilities = format: physicochemical
P. vulgaris UC 93 = assay: Minimal Inhibitory Concentration; format: cell-based; conditions: Proteus vulgaris, UC93
B. subtilis = assay: antibacterial activity (in words); format: cell-based
K. pneumoniae UC 58 = assay: Minimal Inhibitory Concentration; format: cell-based; conditions: Klebsiella pneumoniae, UC58
E. coli UC 45 = assay: Minimal Inhibitory Concentration; format: cell-based; conditions: Escherichia coli, UC45
[1] = system: various Gram-positive and Gram-negative bacteria; assay: antibacterial activity (in words); format: cell-based; conditions: disc assay
Experimental: (§1) The testing was done on a standard microbiological disc assay system using 0.1 ml per 12.7 mm disc.

stability at various pH = format: physicochemical; conditions: any pH from about 1 to about 11
S. faecalis UC 694 = assay: Minimal Inhibitory Concentration; format: cell-based; conditions: Enterococcus faecalis, UC694
S. aureus UC 76 = assay: Minimal Inhibitory Concentration; format: cell-based; conditions: Staphylococcus aureus, UC76
P. mirabilis UC 6671 = assay: Minimal Inhibitory Concentration; format: cell-based; conditions: Proteus mirabilis, UC6671
Staphylococcus aureus = assay: antibacterial activity (in words); format: cell-based
B. subtilis (UC 564) = assay: biounit assay against B. subtilis (paper disc, zone of growth inhibition); format: cell-based; conditions: IR-45 (OH--) column fractions after lyophilization; 12.7 mm disc, 0.08 ml, 32° C., ca 18 hours
Experimental: The active fractions during the recovery and purification process are determined by assay against the microorganism Bacillus subtilis. The assay procedure is as follows:
5.0 mls culture are centrifuged (4000×g, 10'). Serial dilutions of the supernatant solution are performed in 0.1 M phosphate buffer, pH 7.7. […] The trays are incubated at 32° C. for ca 18 hours and the zone of growth inhibition recorded.
The designation BU, used herein, means biounit. A biounit is defined as the concentration of the antibiotic which gives a 20 mm zone of inhibition.

S. pyogenes UC 152 = assay: Minimal Inhibitory Concentration; format: cell-based; conditions: Streptococcus pyogenes, UC152
S. flexneri UC 143 = assay: Minimal Inhibitory Concentration; format: cell-based; conditions: Shigella flexneri, UC143
Proteus vulgaris UC 93 = assay: standard microbiological disc assay, zone size; format: cell-based; conditions: 0.1 ml per 12.7 mm disc
Experimental: as §1

[2] = system: Bacillus subtilis UC 6033; assay: standard microbiological disc assay, zone size; format: cell-based; conditions: 0.1 ml per 12.7 mm disc
Experimental: as §1

[3] = system: Pseudomonas aeruginosa UC 95; assay: standard microbiological disc assay, zone size; format: cell-based; conditions: 0.1 ml per 12.7 mm disc
Experimental: as §1

Bacillus subtilis UC 564 = assay: standard microbiological disc assay, zone size; format: cell-based; conditions: 0.1 ml per 12.7 mm disc
Experimental: as §1

[4] = system: Staphylococcus aureus UC 80; assay: standard microbiological disc assay, zone size; format: cell-based; conditions: 0.1 ml per 12.7 mm disc
Experimental: as §1

[5] = system: Staphylococcus aureus UC 3665; assay: standard microbiological disc assay, zone size; format: cell-based; conditions: 0.1 ml per 12.7 mm disc
Experimental: as §1

Sarcina lutea UC 130 = assay: standard microbiological disc assay, zone size; format: cell-based; conditions: 0.1 ml per 12.7 mm disc
Experimental: as §1

[6] = system: Klebsiella pneumoniae UC 57; assay: standard microbiological disc assay, zone size; format: cell-based; conditions: 0.1 ml per 12.7 mm disc
Experimental: as §1

Escherichia coli UC 51 = assay: standard microbiological disc assay, zone size; format: cell-based; conditions: 0.1 ml per 12.7 mm disc
Experimental: as §1

Ps. aeruginosa UC 95 = assay: Minimal Inhibitory Concentration; format: cell-based; conditions: Pseudomonas aeruginosa, UC95
S. typhi UC 215 = assay: Minimal Inhibitory Concentration; format: cell-based; conditions: Salmonella enterica, read-out: Minimal Inhibitory Concentration
S. schottmuelleri UC 126 = assay: Minimal Inhibitory Concentration; format: cell-based
D. pneumoniae UC 41 = assay: Minimal Inhibitory Concentration; format: cell-based; conditions: Streptococcus pneumoniae, UC41
S. marcescens UC 131 = assay: Minimal Inhibitory Concentration; format: cell-based; conditions: Serratia marcescens, UC131

With `N[C@@H]1[C@@H](O)[C@@H](O[C@H]2O[C@H](CO)[C@@H](O)[C@H](O)[C@H]2O)O[C@H](CO)[C@H]1O` [3-Trehalosamine] as the compound, how does the solubility (Solubilities; any pH from about 1 to about 11) read?
The solubility was “soluble”.

What about the solubility (Solubilities; water, dilute acid, dilute base) of the same compound?
The solubility was “soluble in water, dilute acid and dilute base”.

What about the MIC (P. vulgaris UC 93) of the same compound?
The MIC was greater than 1000 µg/mL.

What about the antibacterial activity (B. subtilis) of the same compound?
The antibacterial activity was “active against B. subtilis”.

And the MIC (K. pneumoniae UC 58)?
The MIC was greater than 1000 µg/mL.

And the MIC (E. coli UC 45)?
Its MIC is greater than 1000 µg/mL.

And the antibacterial activity [1]?
Its antibacterial activity is “active against various Gram-positive and Gram-negative bacteria”.

What about the stability (stability at various pH) of the same compound?
The stability was “stable”.

What about the MIC (S. faecalis UC 694) of the same compound?
Its MIC is greater than 1000 µg/mL.

And the MIC (S. aureus UC 76)?
Its MIC is greater than 1000 µg/mL.

And the MIC (P. mirabilis UC 6671)?
Its MIC is greater than 1000 µg/mL.

What about the antibacterial activity (Staphylococcus aureus) of the same compound?
Its antibacterial activity is “active against Staphylococcus aureus”.

What about the “potency vs Bs (biounits; BU = concentration giving a 20 mm zone of inhibition)” value (B. subtilis (UC 564)) of the same compound?
Its value is 80 BU/mg.

And the MIC (S. pyogenes UC 152)?
Its MIC is 1000 µg/mL (≈ 2930 µM).

And the MIC (S. flexneri UC 143)?
The MIC was greater than 1000 µg/mL.

What about the “Zone Size” value (Proteus vulgaris UC 93) of the same compound?
Its value is 0 mm.

What about the “Zone Size” value [2] of the same compound?
The value was 24 mm.

What about the “Zone Size” value [3] of the same compound?
The value was 0 mm.

And the “Zone Size” value (Bacillus subtilis UC 564)?
The value was 36.5 mm.

And the “Zone Size” value [4]?
The value was 32 mm.

What about the “Zone Size” value [5] of the same compound?
The value was 30 mm.

And the “Zone Size” value (Sarcina lutea UC 130)?
The value was 0 mm.

What about the “Zone Size” value [6] of the same compound?
Its value is 0 mm.

And the “Zone Size” value (Escherichia coli UC 51)?
The value was 0 mm.

And the MIC (Ps. aeruginosa UC 95)?
The MIC was greater than 1000 µg/mL.

What about the MIC (S. typhi UC 215) of the same compound?
The MIC was greater than 1000 µg/mL.

And the MIC (S. schottmuelleri UC 126)?
Its MIC is greater than 1000 µg/mL.

And the MIC (D. pneumoniae UC 41)?
The MIC was 62.5 µg/mL (≈ 183 µM).

What about the MIC (S. marcescens UC 131) of the same compound?
Its MIC is greater than 1000 µg/mL.
